Where a chain is given by its changes, count along the chain named.
What was measured:
[1] = target: T1, rP2 × 4R C126A/C149A mutant (Rattus norvegicus, UniProt P51577, C126A/C149A); assay: ATP concentration–response curves, voltage clamp, C126A/C149A double mutant; type: cell-based; conditions: for EC50: ATP EC50, C126A/C149A
T1 construct: host or cells: Xenopus laevis oocytes
T1 sequence (P51577 1-388 C126A/C149A): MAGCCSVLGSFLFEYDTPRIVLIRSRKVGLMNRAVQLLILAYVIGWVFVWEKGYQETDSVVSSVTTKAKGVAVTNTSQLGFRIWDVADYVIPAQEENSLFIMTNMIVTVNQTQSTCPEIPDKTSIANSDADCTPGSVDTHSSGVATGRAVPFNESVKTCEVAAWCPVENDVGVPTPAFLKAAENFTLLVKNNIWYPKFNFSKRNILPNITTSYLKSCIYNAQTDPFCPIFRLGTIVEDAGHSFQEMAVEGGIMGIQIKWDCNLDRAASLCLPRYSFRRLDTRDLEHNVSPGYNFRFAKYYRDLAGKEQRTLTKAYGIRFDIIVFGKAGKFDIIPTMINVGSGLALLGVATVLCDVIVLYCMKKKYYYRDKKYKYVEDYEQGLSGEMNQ

[2] = target: T2, rP2 × 4R C132A/C159A mutant (Rattus norvegicus, UniProt P51577, C132A/C159A); assay: ATP concentration–response curves, voltage clamp, C132A/C159A double mutant; type: cell-based; conditions: for EC50: ATP EC50, C132A/C159A
T2 construct: host or cells: Xenopus laevis oocytes
T2 sequence (P51577 1-388 C132A/C159A): T1 sequence (P51577 1-388 C126A/C149A) with A126C, C132A, A149C, C159A

rP2 × 4R C132A mutant = target: T3, rP2 × 4R C132A mutant (Rattus norvegicus, UniProt P51577, C132A); assay: ATP concentration–response curves, voltage clamp, C132A mutant; type: cell-based; conditions: for EC50: ATP EC50, C132A
T3 construct: expressed in transfected cells; host or cells: Xenopus laevis oocytes
T3 sequence (P51577 1-388 C132A): T1 sequence (P51577 1-388 C126A/C149A) with A126C, C132A, A149C

rP2 × 4R D170N mutant = target: T4, rP2 × 4R D170N mutant (Rattus norvegicus, UniProt P51577, D170N); assay: ATP concentration–response curves, voltage clamp, D170N mutant; type: cell-based; conditions: for EC50: ATP EC50, D170N
T4 construct: host or cells: Xenopus laevis oocytes
T4 sequence (P51577 1-388 D170N): T1 sequence (P51577 1-388 C126A/C149A) with A126C, A149C, D170N

rP2 × 4R C149A mutant = target: T5, rP2 × 4R C149A mutant (Rattus norvegicus, UniProt P51577, C149A); assay: ATP concentration–response curves, voltage clamp, C149A mutant; type: cell-based; conditions: for EC50: ATP EC50, C149A
T5 construct: host or cells: Xenopus laevis oocytes
T5 sequence (P51577 1-388 C149A): T1 sequence (P51577 1-388 C126A/C149A) with A126C

rP2 × 4R C126A mutant = target: T6, rP2 × 4R C126A mutant (Rattus norvegicus, UniProt P51577, C126A); assay: ATP concentration–response curves, voltage clamp, C126A mutant
T6 sequence (P51577 1-388 C126A): T1 sequence (P51577 1-388 C126A/C149A) with A149C

Row | SMILES | EC50 ([1]; +10 µM Zn(II)) | EC50 ([1]; control) | EC50 ([2]; +10 µM Zn(II)) | EC50 ([2]; control) | EC50 (rP2 × 4R C132A mutant; +10 µM Zn(II)) | EC50 (rP2 × 4R C132A mutant; control) | EC50 (rP2 × 4R D170N mutant; +10 µM Zn(II)) | EC50 (rP2 × 4R D170N mutant; control) | EC50 (rP2 × 4R C149A mutant; +10 µM Zn(II)) | EC50 (rP2 × 4R C149A mutant; control) | Imax (rP2 × 4R C149A mutant; C149A, +10 µM Zn(II)) | EC50 (rP2 × 4R C126A mutant; ATP EC50, C126A, +10 µM Zn(II)) | Imax (rP2 × 4R C126A mutant; C126A, +10 µM Zn(II)) | fold decrease in ATP EC50 by Zn(II) ([1]; C126A/C149A, 10 µM Zn(II)) | fold reduction in ATP EC50 by Zn(II) ([2]; C132A/C159A, 10 µM Zn(II)) | Zn(II) modulation of the mutant (rP2 × 4R C132A mutant; C132A, 10 µM Zn(II)) | EC50 ratio in the metal presence (rP2 × 4R D170N mutant; D170N, 10 µM Zn(II)) | fold ATP EC50 decrease by Zn(II) (rP2 × 4R C149A mutant; C149A, 10 µM Zn(II)) | fold reduction in ATP EC50 by Zn(II) (rP2 × 4R C126A mutant; C126A, 10 µM Zn(II))
1 | Nc1ncnc2c1ncn2[C@@H]1O[C@H](COP(=O)(O)OP(=O)(O)OP(=O)(O)O)[C@@H](O)[C@H]1O [ATP, adenosine triphosphate] | 10.1 ± 4.1 µM | 22.9 ± 6.7 µM | 4.5 ± 1.6 µM | 77.1 ± 24.1 µM | 19.9 ± 13.4 µM | 10.2 ± 3.8 µM | 12.8 ± 8.1 µM | 19.3 ± 10.5 µM | 22.5 ± 7.5 µM | 39 ± 16.7 µM | 10.7 ± 3.5 µA | 9.3 ± 3 µM | 11.7 ± 4.8 µA | – | – | – | – | – | –
2 | [Cl-].[Cl-].[Zn+2] [Zn(II), zinc chloride (ZnCl2)] | – | – | – | – | – | – | – | – | – | – | – | – | – | 2.26 fold | 17.1 fold | resistant to Zn(II) modulation | 1.5 | 1.73 fold | 4.1 fold
